Assay results published in patent US20250041286A1, “CANCER TREATMENT USING KETOTIFEN IN COMBINATION WITH A CHECKPOINT INHIBITOR” (Materia Therapeutics Inc., priority 2021, published 2025).

System: K7M2wt tumors
Test: Tumor growth (volume, mass) under daily ketotifen, osteosarcoma model
Assay type: in vivo, mouse
Conditions: daily ketotifen i.p. for 8 days
Description: Two mouse models of distinct sarcoma subtypes, fibrosarcoma (MCA205 cells) and osteosarcoma (K7M2wt cells), were used in this study.
MCA205, a mouse fibrosarcoma cell line (SCC173, Millipore), was cultured in RPMI-1640 expansion medium containing 2 mM L-glutamine, 1 mM sodium pyruvate, 10% fetal bovine serum, 1× non-essential amino acids (TMS-001-C, Sigma), 1% antibiotics (A5955, Sigma), and 1×β-mercaptoethanol. K7M2wt, a mouse osteosarcoma cell line (CRL2836™, ATCC®), was cultured in DMEM expansion medium supplemented with 10% FBS and 1% antibiotics. All cells were maintained at 37° C./5% CO2.
A fibrosarcoma syngeneic tumor model was generated by subcutaneous implantation of 2.5×10^5 MCA205 cells in 50 μL of serum-free medium into the flank of 6-week old C57BL/6 female mice. A osteosarcoma syngeneic tumor model was generated by implanting K7M2wt tumor chunks into the fat pad of 6-week old BALB/c female mice. […]
Each treatment group of 4-7 mice received subtherapeutic doses of ketotifen (1, 5, 10 and 25 mg/kg) for a period of 8 days. […] Planar dimensions (x, y) of tumor were monitored every 2-3 days using a digital caliper and tumor volume was estimated from the volume of an ellipsoid and assuming that the third dimension, z, is equal to sqrt(x y).

CN1CCC(=C2c3ccccc3CC(=O)c3sccc32)CC1 [ketotifen]
antitumor effect (tumor volume and mass): No subtherepautic dose of ketotifen exhibited an antitumor effect
